Data taken from US10495627B2, “Apparatus and method for early diagnosis of cell death” (LYNCEE TEC S.A., priority 2010, dated 2019).
“Also recorded” adds a separate entry of the source.

How the values were obtained:
[1] = test system: primary cultures of mouse cortical neurons; assay: Mean phase value on cell bodies monitored over time by digital holographic microscopy (DHM) after glutamate-induced excitotoxic stimulation; type: cell-based
From the text: The particular implementation is a transmission DHM setup making possible to monitor cells in time through phase measurement. The sketch of the optical arrangement of the measurement setup is shown in FIG. 3, where the light emitted by a light source is split into two beams and recombined to generate an interference producing a hologram on the camera. […] Phase images are reconstructed by a numerical method for off-axis digital hologram reconstruction.
In the different experiments described below, the optical property, employed for cell death detection is the mean phase value measured on cell bodies and monitored during time. The phase value is intrinsically a relative measurement that has to be compared with a phase reference, usually taken as the phase shift induced by the perfusion medium. Physically, the phase value φ can thus be related to an optical path length (OPL) as
[formula] where the indices i and m correspond respectively to the intracellular content of the cell and to the perfusion medium, h is the height of the cell at position (x, y) and n is the mean refractive index (RI) along the optical axis. The phase is measured by calculating a spatial averaging of the phase value on a constant surface contained in the cell body, to which a reference phase value measured on a zone of the field of view containing no biological material has been subtracted.
The meaning of the phase measured with an interferometric method in this context is dependent on the height of the cell and on its intracellular RI. Therefore, the phase is linked both to the cell volume phenotype (through cell height), and to the intracellular content of cells phenotype (through RI), and thus indirectly to the osmotic regulation of the cell. The phase signal is therefore an indicator of cell volume regulation through both parameters, and can be indirectly linked to homeostasis through osmotic phenomena.
This particular study is performed on primary cultures of mouse cortical neurons, mounted on coverslips for optical measurement. Before experiment, coverslips are mounted on a perfusion chamber used to apply the different solutions to the cells, which are immersed in a HEPES-buffered standard physiological perfusion medium. As an example of application of cell death detection through volume regulation, we present in the following a detection of neuronal death induced through glutamate-induced excitotoxic stimulation, ultimately leading to cell death. The glutamate is a neurotransmitter activating neuronal receptors, leading under strong exposure to high level of intracellular calcium concentration, which can lead to death pathway triggering if not regulated properly.
(§1) In order to validate the measurement principle proposed in this application, the cell viability is also tested with trypan blue 0.4% reagent, to enable comparative measurements. The dye relies on probing the cell membrane integrity, which becomes permeable to the color compound at a certain level after cell death mechanisms started. After reagent wash-out, the cell nuclei of non-viable cells are consequently stained in blue, as the dye fixes on DNA material. Excitotoxic effects were studied during the experiments, by applying glutamate pulses at different concentration to the cells. The excitation solutions were prepared with concentrations ranging between 25 μM and 100 μM, depending on the type of experiment. Perfusion changes were performed by washing the chamber with a micropipette, making it possible to replace the perfusion medium through typically two washes of the medium.
The mean phase value measured on four cell bodies is shown in FIG. 4(a), where the reagent has been applied several times on the culture with an interval of approximately one hour. […]

[2] = test system: primary cultures of mouse cortical neurons; assay: Cell viability tested with trypan blue 0.4% reagent after glutamate stimulation; type: cell-based; settings: for trypan blue staining / time at which nucleus was stained by trypan blue (cell death): 90 seconds; for time at which cell death was confirmed with trypan blue: 120 seconds
Protocol: as §1
In order to enable color measurement for cell viability assessment with the reagent, a flip mirror is inserted after the MO, so that the intensity image could also be recorded in focus with a color camera. When performing trypan blue staining, the illumination is changed to employ an incoherent halogen white light source to enable color measurement; this implies that during dye probing, no DHM measurement is performed, yielding part of unmeasured phase signal during time monitoring. Image merging between the two measurement techniques could be done through calibration of the system by imaging an object whose shape is well-known.
Brightfield color images of the culture, enabling the assessment through the trypan blue dye as a control experiment, are presented in FIGS. 4(b-c), respectively at t=30 min before the excitotoxic stimulation and t=290 min, where non viable cells are identified by the blue staining.

[3] = glutamate 50 μM during 90 seconds, cell 4

With `N[C@@H](CCC(=O)O)C(=O)O` [glutamate] the phase variations [1, 3] was “below 10 °”, the “time to retrieve the same mean phase value” [1, 3] was “approximately 10 minutes” and the phase signal drop ([1]; glutamate 50 μM during 90 seconds, three of four cells (cells 1 to 3)) was “approximately 40 °”. For the same compound, the phase response ([1]; glutamate pulse 25 μM, 90 seconds, n=10 cells) was “reversible responses in phase; also recorded: only recovery curves”, the phase response ([1]; glutamate pulse 50 μM, 90 s) was “mixed responses between recovery and death” and the phase response ([1]; glutamate pulse 50 μM, 120 s) was “irreversible signals”. The trypan blue staining ([2]; glutamate 25 μM, up to 4 hours and 30 minutes after stimulation) was “all cells being unstained”, the “time at which nucleus was stained by trypan blue (cell death)” value (from here on “time at which nucleus was stained”) ([2]; glutamate 50 μM, cell 1) was 116 min and the “time at which nucleus was stained” value ([2]; glutamate 50 μM, cell 2) was 207 min. For the same compound, the “time at which nucleus was stained” value ([2]; glutamate 50 μM, cell 3) was 252 min, the trypan blue staining ([2]; glutamate 50 μM, cell 4, several hours after exposure) was “remained unstained with a healthy morphology” and the “time at which cell death was confirmed with trypan blue” value ([2]; glutamate 50 μM, cell 3) was 385 min. For the same compound, the “time at which cell death was confirmed with trypan blue” value ([2]; glutamate 50 μM, cells 1 and 2) was 323 min.
